target: T1, PIP4K2C (Homo sapiens, UniProt Q8TBX8); test: Enzyme Binding Assay (KINOMEscan): active site-directed competition binding to an immobilized ligand; design: purchased Eurofins DiscoverX, San Diego, CA 87-0007-1094; conditions: 11-point dose response, duplicate, top concentration 5 micromolar; read-out: Pip4k2c Kd: IC50
T1 sequence (Q8TBX8 1-421): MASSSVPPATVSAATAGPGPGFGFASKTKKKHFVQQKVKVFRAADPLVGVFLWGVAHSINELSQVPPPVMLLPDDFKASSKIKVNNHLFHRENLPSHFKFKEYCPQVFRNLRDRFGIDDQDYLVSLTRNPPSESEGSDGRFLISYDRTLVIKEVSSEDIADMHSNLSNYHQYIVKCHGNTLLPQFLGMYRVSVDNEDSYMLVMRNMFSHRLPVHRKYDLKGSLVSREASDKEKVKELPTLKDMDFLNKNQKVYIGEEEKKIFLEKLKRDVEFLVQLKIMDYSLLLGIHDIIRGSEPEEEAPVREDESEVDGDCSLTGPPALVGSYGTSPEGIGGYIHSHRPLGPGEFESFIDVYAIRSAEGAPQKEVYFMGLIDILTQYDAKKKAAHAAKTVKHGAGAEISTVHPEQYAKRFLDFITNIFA
Procedure, shortened: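 IC50 values come from Hill-equation fits (Levenberg-Marquardt) to 11-point duplicate titrations starting at 5 micromolar. Read-out is competition of compound with an immobilized ligand for the kinase active site.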

Row | SMILES | IC50 [µM]
1 | NC(=O)[C@H]1CC[C@H](Nc2ncc(F)c(-c3cccc(N4CCOCC4)c3)n2)CC1 [Compound 607, trans-4-((5-fluoro-4-(3-morpholinophenyl)pyrimidin-2-yl)amino) cyclohexane-1-carboxamide] | < 0.5
2 | CC(=O)N[C@H]1CC[C@H](Nc2ncc(F)c(-c3cccc(N4CCOCC4)c3)n2)CC1 [Compound 608, trans-N-(4-((5-fluoro-4-(3-morpholinophenyl)pyrimidin-2-yl)amino)cyclohexyl)acetamide] | < 0.5
3 | CC(=O)N[C@H]1CC[C@H](Nc2ncc(F)c(-c3cccc(-c4ccccc4)c3)n2)CC1 [Compound 609, trans-N-(4-((4-([1,1′-biphenyl]-3-yl)-5-fluoropyrimidin-2-yl)amino)cyclohexyl)acetamide] | < 0.5
4 | NC(=O)[C@H]1CC[C@H](Nc2ncc(F)c(-c3cccc(-c4ccccc4)c3)n2)CC1 [Compound 610, trans-4-((4-([1,1′-biphenyl]-3-yl)-5-fluoropyrimidin-2-yl)amino)cyclohexane-1-carboxamide] | < 0.5
5 | CC(=O)N1CCC(Nc2ncc(F)c(-c3cccc(-c4ccccc4)c3)n2)CC1 [Compound 611, 1-(4-((4-([1,1′-biphenyl]-3-yl)-5-fluoropyrimidin-2-yl)amino)piperidin-1-yl)ethan-1-one] | < 0.5
6 | NC(=O)[C@@H]1CCC[C@H](Nc2ncc(F)c(-c3cccc(-c4ccccc4)c3)n2)C1 [Compound 612, (1R,3S)-3-((4-([1,1′-biphenyl]-3-yl)-5-fluoropyrimidin-2-yl)amino) cyclohexane-1-carboxamide] | < 0.5
7 | CC(=O)N1CC[C@H](Nc2ncc(F)c(-c3cccc(-n4ccccc4=O)c3)n2)C1 [Compound 613, (S)-1-(3-(2-((1-acetylpyrrolidin-3-yl)amino)-5-fluoropyrimidin-4-yl)phenyl)pyridin-2(1H)-one] | < 0.5
8 | CC(=O)N1CCC(Nc2ncc(F)c(-c3cccc(-n4ccccc4=O)c3)n2)CC1 [Compound 614, 1-(3-(2-((1-acetylpiperidin-4-yl)amino)-5-fluoropyrimidin-4-yl)phenyl)pyridin-2(1H)-one] | < 0.5
9 | NC(=O)[C@H]1CC[C@H](Nc2ncc(F)c(-c3cccc(N4CCCCC4)c3)n2)CC1 [Compound 615, trans-4-((5-fluoro-4-(3-(piperidin-1-yl)phenyl)pyrimidin-2-yl)amino)cyclohexane-1-carboxamide] | < 0.5
10 | CC(=O)N[C@H]1CC[C@H](Nc2ncc(F)c(-c3cccc(N4CCCCC4)c3)n2)CC1 [Compound 616, trans-N-(4-((5-fluoro-4-(3-(piperidin-1-yl)phenyl)pyrimidin-2-yl)amino)cyclohexyl)acetamide] | < 0.5
11 | NC(=O)[C@H]1CC[C@H](Nc2ncc(F)c(-c3cccc(-n4ccccc4=O)n3)n2)CC1 [Compound 617, trans-4-((5-fluoro-4-(2-oxo-2H-[1,2′-bipyridin]-6′-yl)pyrimidin-2-yl)amino)cyclohexane-1-carboxamide] | < 0.5
12 | NC(=O)[C@H]1CC[C@H](Nc2ncc(F)c(-c3cccc(C4CC4)c3)n2)CC1 [Compound 618, trans-(1r,4r)-4-((4-(3-cyclopropylphenyl)-5-fluoropyrimidin-2-yl)amino)cyclohexane-1-carboxamide] | < 0.5
13 | CC(=O)N[C@H]1CC[C@H](Nc2ncc(F)c(-c3cccc(C4CC4)c3)n2)CC1 [Compound 619, trans-N-((1r,4r)-4-((4-(3-cyclopropylphenyl)-5-fluoropyrimidin-2-yl)amino)cyclohexyl)acetamide] | < 0.5
14 | NC(=O)[C@H]1CC[C@H](Nc2ncc(F)c(-c3cccc(C4(O)CCC4)n3)n2)CC1 [Compound 620, trans-4-((5-fluoro-4-(6-(1-hydroxycyclobutyl)pyridin-2-yl)pyrimidin-2-yl)amino)cyclohexane-1-carboxamide] | < 0.5
15 | NC(=O)[C@H]1CC[C@H](Nc2ncc(F)c(-c3cccc(N4CCCOC4=O)n3)n2)CC1 [Compound 621, trans-4-((5-fluoro-4-(6-(2-oxo-1,3-oxazinan-3-yl)pyridin-2-yl)pyrimidin-2-yl)amino)cyclohexane-1-carboxamide] | < 0.5
16 | NC(=O)[C@H]1CC[C@H](Nc2ncc(F)c(-c3ccnc(N4CCCOC4=O)c3)n2)CC1 [Compound 622, trans-4-[[5-fluoro-4-[2-(2-oxo-1,3-oxazinan-3-yl)-4-pyridyl]pyrimidin-2-yl]amino]cyclohexanecarboxamide] | < 0.5
17 | NC(=O)[C@H]1CC[C@H](Nc2ncc(F)c(-c3ccnc(-n4ccccc4=O)c3)n2)CC1 [Compound 623, trans-4-((5-fluoro-4-(2-oxo-2H-[1,2′-bipyridin]-4′-yl)pyrimidin-2-yl)amino)cyclohexane-1-carboxamide] | < 0.5
18 | CC(=O)N[C@H]1CC[C@H](Nc2ncc(F)c(-c3cccc(N4CCCOC4=O)n3)n2)CC1 [Compound 624, N-(trans-4-((5-fluoro-4-(6-(2-oxo-1,3-oxazinan-3-yl)pyridin-2-yl)pyrimidin-2-yl)amino)cyclohexyl)acetamide] | < 0.5
19 | CC(=O)N[C@H]1CC[C@H](Nc2ncc(F)c(-c3cccc(N4CCCCC4=O)n3)n2)CC1 [Compound 625, N-(trans-4-((5-fluoro-4-(6-(2-oxopiperidin-1-yl)pyridin-2-yl)pyrimidin-2-yl)amino)cyclohexyl) acetamide] | < 0.5
20 | CC(=O)N[C@H]1CC[C@H](Nc2ncc(F)c(-c3cccc(-n4ccccc4=O)n3)n2)CC1 [Compound 626, trans-N-(4-((5-fluoro-4-(2-oxo-2H-[1,2′-bipyridin]-6′-yl)pyrimidin-2-yl)amino)cyclohexyl)acetamide] | < 0.5
21 | CC(=O)N1CCC(Nc2ncc(F)c(-c3ccnc(N4CCOCC4=O)c3)n2)CC1 [Compound 628, 4-(4-(2-((1-acetylpiperidin-4-yl)amino)-5-fluoropyrimidin-4-yl)pyridin-2-yl)morpholin-3-one] | < 0.5
22 | CC(=O)N1CCC(Nc2ncc(F)c(-c3cccc(N4CCOCC4=O)n3)n2)CC1 [Compound 630, 4-(6-(2-((1-acetylpiperidin-4-yl)amino)-5-fluoropyrimidin-4-yl)pyridin-2-yl)morpholin-3-one] | < 0.5
23 | CC(=O)N[C@H]1CC[C@H](Nc2ncc(F)c(-c3cccc(C4CCC(=O)NC4)c3)n2)CC1 (stereo partly drawn) [Compound 631, N-(trans-4-((5-fluoro-4-(3-(6-oxopiperidin-3-yl)phenyl)pyrimidin-2-yl)amino)cyclohexyl)acetamide] | < 0.5

Reference: patent US20260355196A1, “INHIBITORS AND DEGRADERS OF PIP4K PROTEIN” (Larkspur Biosciences, Inc., priority 2023, published 2026)
